According to US11242337B2, “Compounds useful for treating gastrointestinal tract disorders” (Ardelyx, Inc., priority 2017, dated 2022):
Where two headings read alike, the source gives them in different places.

Columns and labels:
[1] = tested on: absorption of sodium from the intestinal lumen; assay: Inhibition of intestinal sodium absorption in rats; format: in vivo, Sprague Dawley rats; settings: 13-hours post-dose; for response vs control in vivo at 0.03 mg/kg / response vs control in vivo at 0.1 mg/kg / response vs control in vivo at 0.3 mg/kg: Rattus norvegicus, Sprague Dawley rats, read-out: Urinary Na (% of Vehicle, out/in); for response vs control in vivo at 0.03 mg/kg: oral gavage 0.03 mg/kg; for response vs control in vivo at 0.1 mg/kg: oral gavage 0.1 mg/kg; for response vs control in vivo at 0.3 mg/kg: oral gavage 0.3 mg/kg; for FFS (1-5): rats, group median fecal form score, 1 normal pellet to 5 liquid fecal streams
Description: Urinary sodium excretion and fecal form were measured to assess the ability of selected example compounds to inhibit the absorption of sodium from the intestinal lumen. Eight-week old, male, Sprague Dawley rats were purchased from Envigo (Livermore, Calif.), were housed 2 per cage and acclimated for at least 48 hours before study initiation. Animals were fed. Harlan Teklad Global TD.160470 rodent chow (Madison, Wis.), standard laboratory rodent chow Harlan Teklad Global 2018 with the addition of 0.4% inorganic phosphorous. Animals had ad libitum access to food and water for the duration of the study and were maintained in a temperature and humidity controlled room on a standard light/dark cycle of 6 AM to 6 PM. On the day of study initiation, rats (n=5/group) were dosed by oral gavage with test compound or vehicle (3 mM HCl, 0.01% Tween80) at a dose volume of […]. Immediately after dose administration animals were placed in individual metabolic cages. At 13-hours post-dose, urine samples were collected and fecal form was assessed. In addition, the weight of food consumed over the 13-hour period was measured and recorded. Fecal forms were scored according to a common scale associated with increasing fecal water to the wettest observation in the cage's collection funnel (1, normal pellet; 2, pellet adhering to sides of collection funnel due to moisture; 3, loss of normal pellet shape; 4, complete loss of shape with a blotting pattern; 5, liquid fecal streams evident). Fecal form score (FFS) was calculated for each group as the median of each individual rat's FFS within the group and reported in Table 7. Fecal samples were dried using a lyophilizer for at least 3 days, following which dry weight was recorded and fecal fluid content was calculated based on the difference between the wet and dry stool weights. Fecal fluid content was calculated as a change from the vehicle group mean. For urine samples, the volumes were determined gravimetrically. Urine samples were analyzed on an ion chromatography system (Thermo Fisher ICS-3000 or ICS-5000+) coupled with conductivity detectors. Chromatographic separation of cations was performed using an IonPac CS12A (Thermo Fisher) 2×250 mm analytical column with an isocratic elution using 25 mM methanesulfonic acid. Concentrations were interpolated from a standard curve (prepared in 10 mM HCl) for sodium based on retention time and peak area. Thirteen-s-hour urinary sodium excretion (mg/13-hours) was calculated by multiplying urinary sodium concentration by 13-hour urine volume. The urinary sodium excretion of compound treatment was normalized to dietary sodium intake and expressed as a percentage of the vehicle mean.

[2] = tested on: human duodenum monolayer culture; assay: Increased trans-epithelial resistance (TEER) in human organoid monolayer cell cultures; format: cell-based; settings: 1 μM apical, baseline corrected
Description: Basal media (B consisted of advanced DMEM/F12 containing 10 mM HEPES (Invitrogen, 15630-080), 1:100 Glutamax (Invitrogen, 35050-061), and 1:100 penicillin/streptomycin (Invitrogen, 15140-122). Supplemented basal media (SBM) contained 1:100 N2 (Invitrogen, 17502-048), 1:50 B27 (Invitrogen, 12587-010), 1 mM N-acetylcysteine (Sigma, A9165), and 10 nM [Leu15]-gastrin I (Sigma, G9145). Growth factors used included 50 ng per mL mouse EGF (Peprotech, 315-09), 100 ng per mL mouse noggin (Peprotech, 250-38), 500 ng per mL human R-spondin 1 (R&D, 4645-RS), 100 ng per mL mouse Wnt-3a (R&D, 1324-WN), 20 μM Y-27632 (Tocris, 1254), 10 mM nicotinamide (Sigma, N0636), 500 nM A83-01 (Tocris, 2939), 10 μM SB202190 (Tocris, 1264). Transwells were 0.4 μm pore polyester membrane 24-well Transwell inserts (Corning). Cultures were incubated at 37° C. in 5% CO2.
Human duodenum organoids were cultured in WENRNAS (Wnt, EGF, noggin, R-spondin1, Nicotinamide, A83-01, SB202190) and typically grown for 7-12 days before being used to plate monolayer cultures. On day 0, organoid cultures embedded in Matrigel were treated with TrypLE Express to break organoids into small pieces and/or single cells. The cells were resuspended to 0.5×10^6 cells/mL in SBM containing WENRAY (Wnt, EGF, noggin, R-spondin1, A83-01, Y-27632). Following this step, 200 μL of cell suspension was plated into the apical side of a 24-well Transwell (100,000 cells/well) and 600 μL of SBM with WENRAY was added to the basolateral side. Duodenum cells were differentiated with ENA (EGF, noggin, A83-01) on day 3. The color of apical compartment turns from pink or orange to yellow due to the increase in NHE3 expression after differentiation.
Each human duodenum monolayer culture well was washed twice with fresh SBM on the apical side on day 6 or day 7 before dosing. All compound stocks were 10 mM dissolved DMSO. Each compound stock was individually mixed with fresh SBM to reach final compound concentration 1 μM and dosed only on the apical side of the monolayer (total volume 200 μl). DMSO at the equivalent concentration was used as the vehicle control. Duplicate wells were dosed for each compound. Transepithelial electrical resistance (TEER) was used as a quantitative technique to measure of tight junction permeability. TEER values were recorded (MERS00002, Millipore) before dosing and 30 mins and 1 hr after dosing for all wells. Each of the duplicate TEER values following treatment were corrected for the individual well baseline TEER. Baseline corrected TEER for each example compound was compared to the average of the DMSO wells and expressed as a percent TEER of vehicle control.

[3] = 1 hr after dosing, read-out: TEER at 60 minutes (% of Vehicle)
[4] = 0.5 h, 30 mins after dosing, read-out: TEER at 30 minutes (% of Vehicle)

Compound | response vs control in vivo at 0.03 mg/kg [1] [%] | response vs control in vivo at 0.1 mg/kg [1] [%] | response vs control in vivo at 0.3 mg/kg [1] [%] | FFS (1-5) ([1]; 0.03 mg/kg) | FFS (1-5) ([1]; 0.1 mg/kg) | FFS (1-5) ([1]; 0.3 mg/kg) | activity at 1 µM [2, 3] [%] | activity at 1 µM [2, 4] [%]
N#Cc1cc(Cl)cc2c1C[C@H](N1CCNCC1)[C@H]2Oc1ccc(S(=O)(=O)N2CCC(NC(=O)CCCNC(=O)NCCCCNC(=O)NCCCC(=O)NC3CCN(S(=O)(=O)c4ccc(O[C@H]5c6cc(Cl)cc(C#N)c6C[C@@H]5N5CCNCC5)cc4)CC3)CC2)cc1 [Example 120, N^1,N^18-Bis(1-([4-([(1S,2S)-6-chloro-4-cyano-2-(piperazin-1-yl)-2,3-dihydro-1H-inden-1-yl]oxy)phenyl]sulfonyl)piperidin-4-yl)-6,13-dioxo-5,7,12,14-tetraazaoctadecanediamide] | > 70 | 40 to 70 | < 40 | 2 | 3 | 4 |  | 
Cc1cc(S(=O)(=O)NCCOCCOCCNC(=O)NCCCCNC(=O)NCCOCCOCCNS(=O)(=O)c2ccc(O[C@H]3c4cc(Cl)cc(Cl)c4C[C@@H]3N3CCNCC3)c(C)c2)ccc1O[C@H]1c2cc(Cl)cc(Cl)c2C[C@@H]1N1CCNCC1 [Example 32, 3-[2-(2-[2-[(4-[[(1S,2S)-4,6-Dichloro-2-(piperazin-1-yl)-2,3-dihydro-1H-inden-1-yl]oxy]-3-methylbenzene)sulfonamido]ethoxy]ethoxy)ethyl]-1-[4-([[2-(2-[2-[(4-[[(1S,2S)-4,6-dichloro-2-(piperazin-1-yl)-2,3-dihydro-1H-inden-1-yl]oxy]-3-methylbenzene)sulfonamido]ethoxy]ethoxy)ethyl]carbamoyl]amino)butyl]urea; bis(trifluoroacetic acid)] |  |  |  |  |  |  | > 130 | 100 to 130
O=C(NCCCCNC(=O)NCCOCCN1CC[C@H](NS(=O)(=O)c2ccc(O[C@H]3c4cc(Cl)cc(Cl)c4C[C@@H]3N3CCNCC3)c(F)c2)C1)NCCOCCN1CC[C@H](NS(=O)(=O)c2ccc(O[C@H]3c4cc(Cl)cc(Cl)c4C[C@@H]3N3CCNCC3)c(F)c2)C1 [Example 106, 4-([(1S,2S)-4,6-Dichloro-2-(piperazin-1-yl)-2,3-dihydro-1H-inden-1-yl]oxy)-N—[(S)-1-(20-[(S)-3-([4-([(1S,2S)-4,6-dichloro-2-(piperazin-1-yl)-2,3-dihydro-1H-inden-1-yl]oxy)-3-fluorophenyl]sulfonamido)pyrrolidin-1-yl]-7,14-dioxo-3,18-dioxa-6,8,13,15-tetraazaicosyl)pyrrolidin-3-yl]-3-fluorobenzenesulfonamide; tetra(trifluoroacetate)] |  |  |  |  |  |  | > 130 | > 130
CN(C)[C@H]1CCCN([C@H]2Cc3c(C#N)cc(Cl)cc3[C@@H]2Oc2ccc(S(=O)(=O)NCCOCCOCCNC(=O)NCCCCNC(=O)NCCOCCOCCNS(=O)(=O)c3ccc(O[C@H]4c5cc(Cl)cc(C#N)c5C[C@@H]4N4CCC[C@H](N(C)C)C4)cc3)cc2)C1 [Example 122, 4-([(1S,2S)-6-Chloro-4-cyano-2-[(S)-3-(dimethylamino)piperidin-1-yl]-2,3-dihydro-1H-inden-1-yl]oxy)-N-[26-([4-([(1S,2S)-6-chloro-4-cyano-2-[(S)-3-(dimethylamino)piperidin-1-yl]-2,3-dihydro-1H-inden-1-yl]oxy)phenyl]sulfonamido)-10,17-dioxo-3,6,21,24-tetraoxa-9,11,16,18-tetraazahexacosyl]benzenesulfonamide] | > 70 | > 70 | 40 to 70 | 2 | 2 | 3 |  | 
C[C@@H]1CN([C@H]2Cc3c(C#N)cc(Cl)cc3[C@@H]2Oc2ccc(S(=O)(=O)N[C@@H]3CCN(CCOCCNC(=O)NCCCCNC(=O)NCCOCCN4CC[C@@H](NS(=O)(=O)c5ccc(O[C@H]6c7cc(Cl)cc(C#N)c7C[C@@H]6N6CCN[C@H](C)C6)cc5)C4)C3)cc2)CCN1 [Example 133, 4-([(1S,2S)-6-Chloro-4-cyano-2-[(R)-3-methylpiperazin-1-yl]-2,3-dihydro-1H-inden-1-yl]oxy)-N—[(R)-1-(20-[(R)-3-([4-([(1S,2S)-6-chloro-4-cyano-2-[(R)-3-methylpiperazin-1-yl]-2,3-dihydro-1H-inden-1-yl]oxy)phenyl]sulfonamido)pyrrolidin-1-yl]-7,14-dioxo-3,18-dioxa-6,8,13,15-tetraazaicosyl)pyrrolidin-3-yl]benzenesulfonamide; bis(trifluoroacetic acid)] | > 70 | < 40 | < 40 | 3 | 3 | 3 |  | 
N#Cc1cc(Cl)cc2c1C[C@H](N1CCNCC1)[C@H]2Oc1ccc(S(=O)(=O)N[C@H]2CCN(C(=O)CCCNC(=O)NCCCCNC(=O)NCCCC(=O)N3CC[C@H](NS(=O)(=O)c4ccc(O[C@H]5c6cc(Cl)cc(C#N)c6C[C@@H]5N5CCNCC5)cc4)C3)C2)cc1 [Example 143, 4-([(1S,2S)-6-Chloro-4-cyano-2-(piperazin-1-yl)-2,3-dihydro-1H-inden-1-yl]oxy)-N—[(S)-1-(18-[(S)-3-([4-([(1S,2S)-6-chloro-4-cyano-2-(piperazin-1-yl)-2,3-dihydro-1H-inden-1-yl]oxy)phenyl]sulfonamido)pyrrolidin-1-yl]-6,13,18-trioxo-5,7,12,14-tetraazaoctadecanoyl)pyrrolidin-3-yl]benzenesulfonamide] | 40 to 70 | < 40 | < 40 | 3 | 3 | 4 |  | 
